Key:
AKT [1] = test: AKT signaling immunoblot, hCASMCs; assay type: cell-based, human; settings: relative to BSA controls
Protocol: (§1) Cellular reagents were purchased from various commercial vendors. Primary human umbilical vein endothelial cells (HUVECs) were obtained from Cell Applications Inc. and cultured according to the manufacture's recommendations. Primary human coronary artery smooth muscle cells were obtained from Invitrogen and were cultured according to the manufacture's recommendations. 293T cells were obtained from ATCC and were cultured according to the manufacture's recommendations. Mouse primary smooth muscle cells were obtained and cultured as described previously. Predesigned Silencer Select siRNA constructs targeting Pearl 1 and negative control siRNA were obtained from ThermoFisher. Transfections were performed using RNAiMAX or Lipofectamine 3000 transfection reagents according to the manufacturer's protocols. Cells were used for signaling assays 48 hours after transfection; efficient Pearl 1 knockdown or Pearl 1 overexpression was confirmed by immunoblot assays.
(§2) Prior to performing signaling assays, cells were trypsinized, centrifuged, suspended in basal media, and counted using an automated hemocytometer. Cells were further diluted in basal media to an assay-dependent concentration. […] Protein content was determined using a bicinchoninic acid assay with BSA standards (#23225, Pierce BCA Protein Assay Kit). […]

Pearl 1ECD = Pearl 1ECD (Homo sapiens, UniProt Q5VY43); settings: pulldown assays
Protocol: The assay buffer consisted of lmg/mL BSA, 0.01% Tween 20, and 10 mM Ca^2+ in PBS. The proteins were incubated together for two hours while rotating. Where indicated, 2 μg primary antibodies were added during the final 30 minutes of the initial incubation. Following the incubation, aliquots were reserved as the input fraction. Subsequently, 6-10 μL slurry of Pierce Anti-c-Myc Magnetic Beads, Invitrogen Dynabeads Protein G beads, or Pierce Streptavidin Magnetic Bead slurry were added, followed by a 1-hour incubation at 20° C. with gentle agitation. Beads were washed in PBS +0.01% Tween 20 and resuspended reducing LDS sample buffer and analyzed by immunoblot assay.

mTOR = mTOR signaling, phospho-array and immunoblot, HUVECs; assay type: cell-based, human
Protocol: Prior to performing signaling assays, cells were trypsinized, centrifuged, suspended in basal media, and counted using an automated hemocytometer. Cells were further diluted in basal media to an assay-dependent concentration. Cells were then incubated with gentle agitation for 60 minutes to prevent cell attachment and reduce basal signaling. PP1, Dynasore, MK-2206, and Rapamycin were diluted in DMSO and used in assay concentrations of 10 μM, 100 μM, 10 μM, and respectively, for the final 20-30 minutes of incubation in basal media. An equal volume of DMSO was used as the negative control condition. […] 1 μg Pearl 1 polyclonal antibody was added as a specific positive control. 20% growth media or 2% fetal bovine serum, labeled “Serum” in figures, was added as a non-specific positive control. The cells were centrifuged at 300G for 3 minutes with the exception of platelets, which were centrifuged at 500G for 5 minutes. The cells were then incubated at 37° C. for 8-45 minutes, depending on the cell type and pathway of interest. The cells were lysed in radioimmunoprecipitation buffer (RIPA) containing a cocktail of protease and phosphatase inhibitors and universal nuclease. Immunoblots were performed by standard techniques, as briefly follows. Protein content was determined using a bicinchoninic acid assay with BSA standards (#23225, Pierce BCA Protein Assay Kit). Cell lysates were then reduced with dithiothreitol (DTT) in lithium dodecyl sulfate (LDS) sample buffer (#NP0007, Invitrogen). Equal protein amounts were added to polyacrylamide gels (#4561086, BioRad) and electrophoresed prior to transferring to a nitrocellulose or polyvinylidene fluoride membrane (#1620260, BioRad). Membranes were blocked in 5% BSA/Tris-buffered saline (TBS) with 0.1% Tween 20 for 30 minutes. The indicated primary antibodies were incubated with the pre-blocked membranes overnight at 4° C. Membranes were washed with TBS with 0.1% Tween 20, probed with fluorescent secondary antibodies, and imaged. β-actin or β-tubulin served as a loading control. […]

AKT [2] = test: AKT signaling immunoblot, 293T cells; assay type: cell-based
Protocol: as §1, §2

HUVECs = test: HUVEC adhesion assay; assay type: cell-based, human; settings: wells coated with increasing concentrations, 10 minutes
Protocol: Subsequently, wells were blocked with 100 mg/mL BSA and washed with DPBS. HUVECs were collected and resuspended in basal media. 5,000 cells were added to each well. Cells were centrifuged and incubated at 37° C. for 10 minutes. The plate was gently centrifuged upside down to remove non-adhered cells. Adhered cells were fixed with 4% paraformaldehyde, stained with 4′,6-diamidino-2-phenylindole (DAPI), and counted by automated microscopy as done previously.

[3] = test system: integrin signaling kinases; test: Integrin signaling western blot, VSMCs; assay type: cell-based, mouse; settings: VSMCs adherent to coated wells, relative to inert protein control
Protocol: Cells were resuspended in serum-free media (SFM) and incubated with gentle agitation to prevent cell attachment and reduce basal signaling. […] Cells were briefly centrifuged to the bottom of the wells and incubated for 8 min (for VSMCs) or 15 min (for THP-1 cells) before lysis with cell lysis buffer (#9803, Cell Signaling Technologies) containing a cocktail of protease and phosphatase inhibitors. Western blots were performed by standard techniques, as briefly follows. Protein content was determined using a bicinchoninic acid assay with BSA standards (#23225, Pierce™ BCA Protein Assay Kit). Cell lysates were then reduced with DTT in lithium dodecyl sulfate sample buffer (#NP0007, Invitrogen). Equal protein amounts were added to polyacrylamide gels (#4561086, BioRad) and electrophoresed prior to transferring to a nitrocellulose or polyvinylidene fluoride membrane (#1620260, BioRad). Membranes were blocked in 5% BSA/Tris-Buffered Saline with tween 20 for 30 min. The indicated primary antibodies were incubated with the pre-blocked membranes for overnight at 4° C. Membranes were washed with Tris-Buffered Saline with tween 20, probed with fluorescent secondary antibodies, and imaged. β-actin or β-tubulin served as a loading control.

AKT [4] = test: AKT signaling immunoblot / phospho-array, HUVECs; assay type: cell-based, human
Protocol: as §1
Prior to performing signaling assays, cells were trypsinized, centrifuged, suspended in basal media, and counted using an automated hemocytometer. Cells were further diluted in basal media to an assay-dependent concentration. Cells were then incubated with gentle agitation for 60 minutes to prevent cell attachment and reduce basal signaling. PP1, Dynasore, MK-2206, and Rapamycin were diluted in DMSO and used in assay concentrations of 10 μM, 100 μM, 10 μM, and respectively, for the final 20-30 minutes of incubation in basal media. An equal volume of DMSO was used as the negative control condition. […] 1 μg Pearl 1 polyclonal antibody was added as a specific positive control. 20% growth media or 2% fetal bovine serum, labeled “Serum” in figures, was added as a non-specific positive control. The cells were centrifuged at 300G for 3 minutes with the exception of platelets, which were centrifuged at 500G for 5 minutes. The cells were then incubated at 37° C. for 8-45 minutes, depending on the cell type and pathway of interest. The cells were lysed in radioimmunoprecipitation buffer (RIPA) containing a cocktail of protease and phosphatase inhibitors and universal nuclease. Immunoblots were performed by standard techniques, as briefly follows. Protein content was determined using a bicinchoninic acid assay with BSA standards (#23225, Pierce BCA Protein Assay Kit). Cell lysates were then reduced with dithiothreitol (DTT) in lithium dodecyl sulfate (LDS) sample buffer (#NP0007, Invitrogen). Equal protein amounts were added to polyacrylamide gels (#4561086, BioRad) and electrophoresed prior to transferring to a nitrocellulose or polyvinylidene fluoride membrane (#1620260, BioRad). Membranes were blocked in 5% BSA/Tris-buffered saline (TBS) with 0.1% Tween 20 for 30 minutes. […]

Sequence of Pearl 1ECD (Q5VY43 21-755 limits assumed): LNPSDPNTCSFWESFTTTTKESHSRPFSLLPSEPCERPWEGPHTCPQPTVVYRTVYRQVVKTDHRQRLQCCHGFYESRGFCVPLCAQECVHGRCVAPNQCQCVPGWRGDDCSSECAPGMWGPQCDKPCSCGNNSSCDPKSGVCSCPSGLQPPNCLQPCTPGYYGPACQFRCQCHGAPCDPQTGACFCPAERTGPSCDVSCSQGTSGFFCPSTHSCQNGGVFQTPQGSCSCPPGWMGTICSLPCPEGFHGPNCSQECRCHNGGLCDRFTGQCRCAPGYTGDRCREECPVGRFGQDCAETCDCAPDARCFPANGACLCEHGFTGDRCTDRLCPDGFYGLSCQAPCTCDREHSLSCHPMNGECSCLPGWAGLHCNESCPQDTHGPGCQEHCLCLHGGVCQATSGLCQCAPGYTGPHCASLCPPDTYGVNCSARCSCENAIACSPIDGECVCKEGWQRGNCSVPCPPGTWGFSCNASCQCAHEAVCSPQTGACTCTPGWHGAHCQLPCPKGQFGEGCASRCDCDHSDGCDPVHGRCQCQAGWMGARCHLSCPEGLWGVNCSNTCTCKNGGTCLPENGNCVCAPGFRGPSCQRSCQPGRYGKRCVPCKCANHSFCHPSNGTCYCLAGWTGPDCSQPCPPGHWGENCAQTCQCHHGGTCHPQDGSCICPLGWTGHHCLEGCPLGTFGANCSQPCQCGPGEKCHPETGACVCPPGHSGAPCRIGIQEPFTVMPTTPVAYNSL

co-immunoprecipitation of Pearl 1ECD with Myc-tagged SVEP1 (Pearl 1ECD): co-immunoprecipitates
Substance: SVEP1: recombinant murine SVEP1 extracellular matrix protein with Myc and poly-histidine tag, expressed in 293F cells
AKT signaling (AKT [1]): activated
phosphorylated mTOR (Ser 2448) and p70S6K Thr 389, immunoblot (mTOR; 10 or 30 minutes): activation of mTOR signaling
AKT pathway phospho-proteins (mTOR; 10 minutes of exposure): Few changes
mTOR pathway phospho-proteins (p70S6K, RPS6, 4E-BP1) (mTOR; 30 minutes of exposure): elevated
pAKT levels (AKT [2]; 293T cells transfected with Pearl 1-expression plasmid (constitutive AKT activation)): no additional effect on pAKT levels
AKT activation (AKT [2]; 293T cells, which lack Pearl 1): Neither SVEP1 nor Pearl 1 pAb activated AKT
adherence of HUVECs to coated protein (HUVECs): dose-dependent manner up to 20 pg/mL
phosphorylation of FAK, Paxillin, Src, ERK and p38 [3]: increased phosphorylation
pAKT, AKT pathway phospho-array (AKT [4]; 10 or 30 minutes, SVEP1 relative to BSA): Elevated pAKT
AKT signaling (AKT [4]; relative to BSA controls): activated

Source: patent US20230159620A1, “COMPOSITIONS AND METHODS OF TREATMENT FOR VASCULAR DISEASES AND THROMBOSIS” (Washington University, priority 2021, published 2023)
